Like-named read-outs stand apart in the source and are kept apart here. Some results are limits rather than exact numbers.

Data set [1] can be described thus: Turbidity assay of relative solubility in aqueous buffers. The class given is physicochemical. The note with it: for turbidity threshold (L, M, H) 1.4: pH 1.4 as headed (method: SGF pH 1.5); for turbidity threshold (L, M, H) 4.5: pH 4.5 (SIF); for turbidity threshold (L, M, H) 6.8: pH 6.8 (SIF); for turbidity threshold (L, M, H) 7.4: pH 7.4 (HEPES). The procedure, abridged:
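Turbidity was read spectrophotometrically at 490, 535 and 650 nm, and the endpoint is the concentration where OD passes 0.01, as the mean of the three wavelengths. Compounds came from 25 mM DMSO stock in 1:1 serial dilutions, added to HEPES pH 7.4, SIF pH 6.8 or 4.5 (0.05M NaH2PO4), or SGF pH 1.5 (0.5M NaCl).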

A further data set addresses CYP2C19 (Homo sapiens (Human), UniProt P33261). As to the kind of experiment: CYP enzyme inhibition, fluorescent substrate. An outline of the steps:
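[…]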

A further data set concerns the target Flt-3 kinase (Homo sapiens (Human), UniProt P36888). Briefly: Flt-3 kinase biochemical activity assay (AlphaScreen, biotin-(E4Y)10 phosphorylation). The note with it: 100 μM ATP. As to the method:
In one assay the biochemical activity IC50 values are determined with respect to inhibition of Flt-3 kinase activity, where inhibition of phosphorylation of a peptide substrate is measured as a function of compound concentration. Compounds to be tested, dissolved in DMSO (1 μL), are added to a white 384-well plate (Costar #3705). Working stocks of Flt-3 kinase (Invitrogen), biotin-(E4Y)10 substrate (Upstate Biotech, Cat#12-440), and ATP (Sigma, Cat#A-3377) are prepared in 25 mM Hepes pH 7.5, 5 mM MgCl2, 5 mM MnCl2, 1 mM DTT, and 0.01% Tween-20. All components are added to the 384-well plate for a final concentration of 1 ng/well Flt-3, 30 nM biotin-(E4Y)10 and 100 μM ATP in a volume of 20 μL. Each sample is at 5% DMSO. The plate is then incubated for 1 hour at room temperature. Just before use, working stocks of donor and acceptor beads from the AlphaScreen PY20 Detection Kit (PerkinElmer, Cat#676601M) are prepared in 25 mM Hepes pH 7.5, pH 7.4, 100 mM EDTA. 0.3% BSA. To stop the reaction, the plate is uncovered in the dark and 5 μL of Donor Beads solution (Streptavidin beads) is added to each well. The plate is incubated at room temperature for 20 minutes. Five microliters of Acceptor Beads solution (PY20 coated beads) are then added to each well. The final concentration of each bead is 10 μg/mL. The plates are incubated at room temperature for 60 minutes. Fluorescence signal is recorded on the Envision reader. Phosphorylated substrate results in binding of the PY20 antibody and association of the donor and acceptor beads such that signal correlates with kinase activity. The signal vs. compound concentration is used to determine the IC50.
(Bead proximity is the source of the signal in Alpha formats.)

Chain of CYP2C19 (P33261 whole entry): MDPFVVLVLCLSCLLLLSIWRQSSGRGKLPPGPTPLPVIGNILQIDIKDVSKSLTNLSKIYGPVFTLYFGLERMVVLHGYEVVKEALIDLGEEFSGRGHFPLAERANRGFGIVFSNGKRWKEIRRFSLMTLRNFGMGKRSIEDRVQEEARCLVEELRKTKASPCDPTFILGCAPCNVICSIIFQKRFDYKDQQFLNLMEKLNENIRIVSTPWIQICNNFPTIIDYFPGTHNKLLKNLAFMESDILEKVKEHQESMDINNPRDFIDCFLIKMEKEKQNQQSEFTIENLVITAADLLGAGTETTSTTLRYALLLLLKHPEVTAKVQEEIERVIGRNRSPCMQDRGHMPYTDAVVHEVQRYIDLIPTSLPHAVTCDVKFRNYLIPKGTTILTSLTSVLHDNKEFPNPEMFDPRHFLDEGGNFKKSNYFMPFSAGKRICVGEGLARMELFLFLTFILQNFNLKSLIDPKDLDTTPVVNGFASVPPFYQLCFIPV
Chain of Flt-3 kinase (P36888 27-993): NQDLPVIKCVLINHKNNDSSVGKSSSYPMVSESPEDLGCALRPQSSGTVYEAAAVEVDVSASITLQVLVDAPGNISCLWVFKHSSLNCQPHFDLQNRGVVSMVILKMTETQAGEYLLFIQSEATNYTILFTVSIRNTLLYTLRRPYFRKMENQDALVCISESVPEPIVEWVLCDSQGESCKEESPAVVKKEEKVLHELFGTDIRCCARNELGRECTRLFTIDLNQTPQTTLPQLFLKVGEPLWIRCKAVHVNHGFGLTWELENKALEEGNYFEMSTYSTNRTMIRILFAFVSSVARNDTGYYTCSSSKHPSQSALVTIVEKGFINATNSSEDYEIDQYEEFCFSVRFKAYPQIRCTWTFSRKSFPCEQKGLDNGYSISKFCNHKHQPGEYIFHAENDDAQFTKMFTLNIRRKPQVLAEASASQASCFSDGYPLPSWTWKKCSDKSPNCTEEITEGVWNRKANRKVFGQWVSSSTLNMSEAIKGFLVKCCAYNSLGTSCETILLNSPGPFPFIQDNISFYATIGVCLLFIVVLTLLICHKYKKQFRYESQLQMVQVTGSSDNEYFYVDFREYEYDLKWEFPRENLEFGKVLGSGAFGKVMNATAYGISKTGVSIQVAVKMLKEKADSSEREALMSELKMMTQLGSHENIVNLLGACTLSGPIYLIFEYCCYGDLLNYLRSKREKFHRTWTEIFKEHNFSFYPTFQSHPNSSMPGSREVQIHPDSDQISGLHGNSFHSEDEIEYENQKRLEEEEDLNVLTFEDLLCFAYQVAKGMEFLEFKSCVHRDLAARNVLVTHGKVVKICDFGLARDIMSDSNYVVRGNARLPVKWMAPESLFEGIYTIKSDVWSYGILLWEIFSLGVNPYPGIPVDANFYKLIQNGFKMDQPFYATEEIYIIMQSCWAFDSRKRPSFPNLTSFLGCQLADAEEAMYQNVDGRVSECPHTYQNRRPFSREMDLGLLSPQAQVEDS

A word on the IC50: it is the concentration at which inhibition is half-maximal. Take `COc1ccc(CNc2ncc(Cc3c[nH]c4ncc(C)cc34)cn2)cn1` [Compound P-2057, (6-Methoxy-pyridin-3-ylmethyl)-[5-(5-methyl-1H-pyrrolo[2,3-b]pyridin-3-ylmethyl)-pyrimidin-2-yl]-amine]: in data set [1], the “turbidity threshold (L, M, H) 1.4” value was “H (high solubility if the threshold concentration is >250 μM)”; the “turbidity threshold (L, M, H) 4.5” value is recorded as “L (low solubility if the threshold concentration is <31.3 μM)”; the “turbidity threshold (L, M, H) 6.8” value is “L (low solubility if the threshold concentration is <31.3 μM)”; the “turbidity threshold (L, M, H) 7.4” value is on record as “M (moderate solubility if the threshold concentration is 31.3 μM to 250 μM)”. The IC50 against CYP2C19 lay in the range of 5 to 10 µM. Moreover, the IC50 on Flt-3 kinase is < 0.1 µM.

Consider `COc1ncc(CNc2ccc(Cc3c[nH]c4ncc(Cl)cc34)c(F)n2)cc1F` [Compound P-2165, [5-(5-Chloro-1H-pyrrolo[2,3-b]pyridin-3-ylmethyl)-6-fluoro-pyridin-2-yl]-(5-fluoro-6-methoxy-pyridin-3-ylmethyl)-amine], for which, in data set [1], the “turbidity threshold (L, M, H) 1.4” value is recorded as “L (low solubility if the threshold concentration is <31.3 μM)”; the “turbidity threshold (L, M, H) 4.5” value was “L (low solubility if the threshold concentration is <31.3 μM)”; the “turbidity threshold (L, M, H) 6.8” value is “L (low solubility if the threshold concentration is <31.3 μM)”; the “turbidity threshold (L, M, H) 7.4” value was “L (low solubility if the threshold concentration is <31.3 μM)”. In addition, the IC50 at CYP2C19 (read-out: Cyp IC50 (μM) 2C19) is > 10 µM. Also, at Flt-3 kinase, the half-maximal inhibitory concentration (IC50) was < 0.1 µM.

(Values after patent US9096593B2, “Compounds and methods for kinase modulation, and indications therefor” (Plexxikon Inc., priority 2009, dated 2015).)
